Data set [1] in a line: Plasma pharmacokinetics of Grb2 antisense oligo in patients. The following applies: plasma. As for the experimental part: Pharmacokinetic (PK) analysis was performed on plasma samples collected from refractory/relapsed patients diagnosed with AML receiving BP1001 (60 mg/m^2)+LDAC or receiving BP1001 (90 mg/m^2)+LDAC.
Blood samples for measurement of Grb2 antisense oligo concentrations were collected from patients in cohorts 7 and 8, at predose, 1, 2, 4, 6, 8, 24, 72 h post start-of-infusion (SOI). Urine samples for measurement of BP1001 concentrations were also collected from patients in cohorts 7 and 8, at start of dose-4 h, 4-8 h postdose, and 8-24 h postdose. PK blood samples were processed to plasma and analyzed using a validated method (Charles River Laboratories, Montreal, Canada) with a lower limit of quantitation (LLOQ; 0.5 ng/mL). Urine samples were analyzed using a validated method (Charles River Laboratories, Montreal, Canada) with a LLOQ of 1.00 ng/mL.
PK parameters were estimated using Phoenix pharmacokinetic software (Certara). A non-compartmental approach consistent with the IV infusion route of administration was used for parameter estimation, using an estimated infusion time of 2.5 h. All parameters were generated from Grb2 antisense oligo individual concentrations in plasma from Day 1 of Cycle 1, whenever practical. […] Parameters were estimated using nominal sampling times relative to the start of infusion. The area under the concentration vs. time curve (AUC) was calculated using the linear trapezoidal method with linear interpolation. The slope of the terminal elimination phase was determined using log linear regression on the unweighted concentration data.

In data set [2] the test system is BV173 cells. As to the kind of experiment: Cell cycle analysis (7-AAD flow cytometry). The data set is classed as cell-based, human. As for the experimental part: Cells were then fixed and permeabilized for 1 h at 4° C. with 1×Fixation/Permeabilization buffer (Ebioscience, San Diego, Calif., USA). After permeabilization, cells were washed and incubated with 7-aminoactinomycin D (7-AAD, Biolegend, San Diego, Calif., USA) in the dark at 4° C. for about 30 min. Flow cytometric data acquisition was acquired using BD FACSDiva™ software (BD Biosciences, San Jose, Calif., USA). The flow cytometer was set to collect 20,000 events. Relative percentages in the different cell cycle phases (sub-G1, G1, S, G2/M) were reported.
[…] Three days later, cells were harvested and processed for flow cytometry.

The subject of data set [3] is BV173 cells.
Experimental: (§1) BV173 and K562 cells were seeded at 5 and 15×10^3 cells/well, respectively, in 96-well plates in 0.1 mL of medium. Cells were incubated with BP1001 and/or tyrosine kinase inhibitors for 4 days. The viability of untreated and treated leukemia cells was measured by the CellTiter-Glo® Luminescent Cell Viability Assay (Promega, Madison, Wis., USA). The CellTiter-Glo® Luminescent Cell Viability Assay determines the number of viable cells by quantitating the presence of ATP, an indicator of metabolically active cells.
[4] abbreviates: tyrosine kinase inhibitor alone or after BP1001 pretreatment (FIG. 9A).
Setting [5] is: tyrosine kinase inhibitor alone or followed by BP1001 (FIG. 9B).
The mark [6] stands for this setting: BP1001 (120 μg/mL in the combination) 1 h before 1 nM dasatinib, four days.
The mark [7] stands for this setting: BP1001 (120 μg/mL in the combination) 1 day before dasatinib.
The mark [8] stands for this setting: dasatinib 1 day, then BP1001 (120 μg/mL in the combination), read 3 days later.

Like-named read-outs stand apart in the source and are kept apart here. [PEt] = P-ethoxy (ethyl phosphotriester) internucleoside linkage

Experimental for K562 cells: as §1

In the case of “5′-ATATTTGGCGATGGCTTC-3′ (DNA, all [PEt], methylation of C not given here) [Grb2 antisense oligo]”, the Tmax in data set [1] (60 mg/m^2 cohort) was 1 h. Also, in data set [1] (90 mg/m^2 cohort), the Tmax is on record as 1 h. In addition, in data set [1], the “decrease of Vz for the dose increase from 60 to 90 mg/m^2” value is “approximately 1.5 fold” and the “increase of CL for the dose increase from 60 to 90 mg/m^2” value is reported as “approximately 1.5 fold”.

For the compound `COc1cc(Nc2c(C#N)cnc3cc(OCCCN4CCN(C)CC4)c(OC)cc23)c(Cl)cc1Cl` [bosutinib], the “percentage of cells in sub-G1 phase” value in the data set with BV173 cells [2] (setting [4]) is 34.3%; in the data set on BV173 cells [2] (setting [5]), 66.1%.

Turning to `Cc1nc(Nc2ncc(C(=O)Nc3c(C)cccc3Cl)s2)cc(N2CCN(CCO)CC2)n1` [dasatinib], the decrease of viability in the data set on BV173 cells [3] (setting [6]) is listed as 40%; in the data set with BV173 cells [3] (setting [7]), 10%; in the data set on BV173 cells [3] (setting [8]) it was 6%; in the data set with K562 cells (setting [6]), 25%; in the data set with K562 cells (setting [7]) it was 25%; with K562 cells (setting [8]), 12%. The “percentage of cells in sub-G1 phase” value worked out at 10.6% with BV173 cells [2] (BP1001 1 day before dasatinib, harvested three days later (FIGS. 8A-D)); 30.7% in the data set with BV173 cells [2] (setting [4]); 64.1% in the data set with BV173 cells [2] (setting [5]).

Take `Cc1cn(-c2cc(NC(=O)c3ccc(C)c(Nc4nccc(-c5cccnc5)n4)c3)cc(C(F)(F)F)c2)cn1` [nilotinib]: the figures for the “percentage of cells in sub-G1 phase” value in the data set on BV173 cells [2] (setting [4]) and in the data set with BV173 cells [2] (setting [5]) were 26.4% and 65.0%, respectively.

As for `Cc1ccc(C(=O)Nc2ccc(CN3CCN(C)CC3)c(C(F)(F)F)c2)cc1C#Cc1cnc2cccnn12` [ponatinib], the “percentage of cells in sub-G1 phase” value in the data set with BV173 cells [2] (setting [4]) is listed as 34.0%; in the data set on BV173 cells [2] (setting [5]), 71.1%.

The values above are taken from patent US20200032271A1, “COMBINATION THERAPY WITH LIPOSOMAL ANTISENSE OLIGONUCLEOTIDES” (Bio-Path Holdings, Inc., priority 2016, published 2020).
